Test results taken from the kinase profiling compilation of Christmann-Franck et al. (2016).
“And” between values parts separate entries of the source, which are not always exact repeats. Equal entries are not always repeated.

Experiments:
Assay in all cases: Caliper, Mobility shift assay off-chip
[1] = tested on: ABL1 (human), P00519 [H396P]
ABL2 (human) = ABL2 (human) (UniProt P42684)
AKT1 (human) = AKT1 (human) (UniProt P31749)
AKT3 (human) = AKT3 (human) (UniProt Q9Y243)
AURKB (human) = AURKB (human) (UniProt Q96GD4)
AURKC (human) = AURKC (human) (UniProt Q9UQB9)
CAMK2D (human) = CAMK2D (human) (UniProt Q13557)
CAMK2G (human) = CAMK2G (human) (UniProt Q13555)
CHEK2 (human) = CHEK2 (human) (UniProt O96017)
CSNK1D (human) = CSNK1D (human) (UniProt P48730)
DCLK2 (human) = DCLK2 (human) (UniProt Q8N568)
FER (human) = FER (human) (UniProt P16591)
FGFR3 (human) = FGFR3 (human) (UniProt P22607)
FGFR4 (human) = FGFR4 (human) (UniProt P22455)
[2] = tested on: FLT3 (human), P36888 [D835Y]
HCK (human) = HCK (human) (UniProt P08631)
IRAK4 (human) = IRAK4 (human) (UniProt Q9NWZ3)
LCK (human) = LCK (human) (UniProt P06239)
MAPK1 (human) = MAPK1 (human) (UniProt P28482)
MAPK11 (human) = MAPK11 (human) (UniProt Q15759)
MARK1 (human) = MARK1 (human) (UniProt Q9P0L2)
MARK3 (human) = MARK3 (human) (UniProt P27448)
NEK2 (human) = NEK2 (human) (UniProt P51955)
PAK2 (human) = PAK2 (human) (UniProt Q13177)
PRKCZ (human) = PRKCZ (human) (UniProt Q05513)
PRKD1 (human) = PRKD1 (human) (UniProt Q15139)
PRKD2 (human) = PRKD2 (human) (UniProt Q9BZL6)
PRKD3 (human) = PRKD3 (human) (UniProt O94806)
PRKG1 (human) = PRKG1 (human) (UniProt Q13976)
RPS6KA4 KD1 KD2 (human) = RPS6KA4 KD1 KD2 (human) (UniProt O75676)
RPS6KB1 (human) = RPS6KB1 (human) (UniProt P23443)
SGK1 (human) = SGK1 (human) (UniProt O00141)
STK3 (human) = STK3 (human) (UniProt Q13188)
SYK (human) = SYK (human) (UniProt P43405)

PRKG1 (human), sequence (Q13976 whole entry, looked up): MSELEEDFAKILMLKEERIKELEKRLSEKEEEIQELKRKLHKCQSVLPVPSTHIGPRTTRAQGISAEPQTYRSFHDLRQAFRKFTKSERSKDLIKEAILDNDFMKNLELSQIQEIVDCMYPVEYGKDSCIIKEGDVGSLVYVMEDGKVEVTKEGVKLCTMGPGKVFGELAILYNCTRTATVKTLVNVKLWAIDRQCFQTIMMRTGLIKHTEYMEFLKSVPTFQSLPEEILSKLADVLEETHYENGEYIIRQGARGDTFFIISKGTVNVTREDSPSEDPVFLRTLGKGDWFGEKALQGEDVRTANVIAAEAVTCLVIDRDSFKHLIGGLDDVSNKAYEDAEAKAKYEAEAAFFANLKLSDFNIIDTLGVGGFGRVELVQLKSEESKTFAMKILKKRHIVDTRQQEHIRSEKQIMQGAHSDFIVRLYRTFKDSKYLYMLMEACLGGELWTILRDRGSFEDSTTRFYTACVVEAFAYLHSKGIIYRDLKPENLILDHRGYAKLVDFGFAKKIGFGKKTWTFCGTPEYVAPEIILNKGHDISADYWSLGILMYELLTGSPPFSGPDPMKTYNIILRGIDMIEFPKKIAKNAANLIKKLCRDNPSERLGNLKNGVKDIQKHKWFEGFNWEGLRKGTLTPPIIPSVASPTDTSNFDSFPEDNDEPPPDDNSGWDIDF
MARK3 (human), sequence (P27448 whole entry, looked up): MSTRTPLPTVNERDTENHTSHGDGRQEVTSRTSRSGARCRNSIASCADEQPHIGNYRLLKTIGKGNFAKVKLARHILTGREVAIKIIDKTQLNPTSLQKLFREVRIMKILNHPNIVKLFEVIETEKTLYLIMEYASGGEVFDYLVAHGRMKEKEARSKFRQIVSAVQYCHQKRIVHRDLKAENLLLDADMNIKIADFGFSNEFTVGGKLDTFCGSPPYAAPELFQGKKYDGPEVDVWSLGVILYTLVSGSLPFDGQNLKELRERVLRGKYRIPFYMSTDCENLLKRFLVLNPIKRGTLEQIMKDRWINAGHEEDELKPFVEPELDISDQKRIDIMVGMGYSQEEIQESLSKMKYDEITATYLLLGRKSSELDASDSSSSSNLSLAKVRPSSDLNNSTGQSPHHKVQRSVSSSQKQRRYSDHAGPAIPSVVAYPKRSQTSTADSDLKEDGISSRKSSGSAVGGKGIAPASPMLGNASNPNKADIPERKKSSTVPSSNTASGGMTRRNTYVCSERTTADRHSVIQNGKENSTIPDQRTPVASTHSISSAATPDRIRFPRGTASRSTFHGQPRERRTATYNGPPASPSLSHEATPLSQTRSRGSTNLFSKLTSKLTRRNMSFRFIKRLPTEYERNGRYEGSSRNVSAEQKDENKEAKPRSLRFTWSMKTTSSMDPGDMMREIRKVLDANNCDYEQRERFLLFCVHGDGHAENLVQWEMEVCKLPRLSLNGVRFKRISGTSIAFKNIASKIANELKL
NEK2 (human), sequence (P51955 whole entry, looked up): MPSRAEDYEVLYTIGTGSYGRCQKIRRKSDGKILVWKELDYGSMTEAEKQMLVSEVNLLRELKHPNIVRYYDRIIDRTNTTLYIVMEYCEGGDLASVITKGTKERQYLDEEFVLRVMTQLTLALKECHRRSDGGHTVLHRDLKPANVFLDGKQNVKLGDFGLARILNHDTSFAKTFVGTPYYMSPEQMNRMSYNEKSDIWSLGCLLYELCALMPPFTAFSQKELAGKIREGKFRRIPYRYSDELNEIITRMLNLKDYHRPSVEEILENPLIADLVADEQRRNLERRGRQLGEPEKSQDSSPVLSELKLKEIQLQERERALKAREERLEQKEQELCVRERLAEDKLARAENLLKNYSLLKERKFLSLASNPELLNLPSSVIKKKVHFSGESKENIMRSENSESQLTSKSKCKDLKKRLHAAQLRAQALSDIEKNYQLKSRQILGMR
CHEK2 (human), sequence (O96017 whole entry, looked up): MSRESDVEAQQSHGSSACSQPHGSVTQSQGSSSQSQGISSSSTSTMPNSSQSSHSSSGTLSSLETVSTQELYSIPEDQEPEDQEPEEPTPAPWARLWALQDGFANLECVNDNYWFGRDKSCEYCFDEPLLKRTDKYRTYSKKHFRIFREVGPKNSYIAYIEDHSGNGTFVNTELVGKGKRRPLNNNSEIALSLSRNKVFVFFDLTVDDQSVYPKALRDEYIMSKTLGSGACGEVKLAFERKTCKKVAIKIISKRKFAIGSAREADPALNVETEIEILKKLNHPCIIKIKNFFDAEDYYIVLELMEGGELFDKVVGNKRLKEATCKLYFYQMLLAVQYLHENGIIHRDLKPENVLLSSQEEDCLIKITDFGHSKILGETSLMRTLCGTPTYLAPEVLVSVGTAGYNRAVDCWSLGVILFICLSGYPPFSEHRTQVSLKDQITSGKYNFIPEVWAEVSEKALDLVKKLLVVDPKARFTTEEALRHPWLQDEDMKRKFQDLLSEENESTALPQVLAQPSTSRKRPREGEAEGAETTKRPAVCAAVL
SGK1 (human), sequence (O00141 whole entry, looked up): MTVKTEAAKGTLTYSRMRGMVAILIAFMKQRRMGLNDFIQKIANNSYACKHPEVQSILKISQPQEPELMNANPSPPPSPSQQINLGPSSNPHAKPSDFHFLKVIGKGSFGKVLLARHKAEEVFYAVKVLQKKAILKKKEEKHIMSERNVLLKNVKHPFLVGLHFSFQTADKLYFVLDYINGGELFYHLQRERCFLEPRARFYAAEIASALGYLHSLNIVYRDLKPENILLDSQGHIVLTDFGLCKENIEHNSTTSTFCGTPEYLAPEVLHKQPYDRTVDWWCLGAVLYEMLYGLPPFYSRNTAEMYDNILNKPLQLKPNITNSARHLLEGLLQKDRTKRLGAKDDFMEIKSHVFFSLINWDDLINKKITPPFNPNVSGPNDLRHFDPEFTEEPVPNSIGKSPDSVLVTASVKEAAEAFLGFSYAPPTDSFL
PRKD2 (human), sequence (Q9BZL6 whole entry, looked up): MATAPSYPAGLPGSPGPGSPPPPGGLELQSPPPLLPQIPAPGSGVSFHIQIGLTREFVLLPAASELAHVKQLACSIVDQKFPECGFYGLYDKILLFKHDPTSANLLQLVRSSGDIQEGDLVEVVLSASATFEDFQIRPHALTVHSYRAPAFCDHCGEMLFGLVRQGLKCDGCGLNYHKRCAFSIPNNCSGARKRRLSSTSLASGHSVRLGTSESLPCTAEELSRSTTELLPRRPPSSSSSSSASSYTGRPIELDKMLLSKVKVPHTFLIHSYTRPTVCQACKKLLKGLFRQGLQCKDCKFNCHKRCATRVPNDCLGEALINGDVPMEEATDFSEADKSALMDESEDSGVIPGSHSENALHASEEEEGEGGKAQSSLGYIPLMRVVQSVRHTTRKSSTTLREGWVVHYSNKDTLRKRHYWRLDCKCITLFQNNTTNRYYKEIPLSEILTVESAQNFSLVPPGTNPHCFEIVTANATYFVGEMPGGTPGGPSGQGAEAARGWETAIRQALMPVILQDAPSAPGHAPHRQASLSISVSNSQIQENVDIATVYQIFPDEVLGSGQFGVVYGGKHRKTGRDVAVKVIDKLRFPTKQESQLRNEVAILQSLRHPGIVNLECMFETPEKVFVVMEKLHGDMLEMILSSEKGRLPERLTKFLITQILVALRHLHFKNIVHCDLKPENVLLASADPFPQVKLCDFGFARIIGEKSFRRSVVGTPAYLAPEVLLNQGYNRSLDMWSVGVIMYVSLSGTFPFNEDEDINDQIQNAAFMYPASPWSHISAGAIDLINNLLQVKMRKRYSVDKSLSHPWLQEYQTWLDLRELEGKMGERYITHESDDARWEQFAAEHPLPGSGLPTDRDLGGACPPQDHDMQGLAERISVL
FGFR3 (human), sequence (P22607 whole entry, looked up): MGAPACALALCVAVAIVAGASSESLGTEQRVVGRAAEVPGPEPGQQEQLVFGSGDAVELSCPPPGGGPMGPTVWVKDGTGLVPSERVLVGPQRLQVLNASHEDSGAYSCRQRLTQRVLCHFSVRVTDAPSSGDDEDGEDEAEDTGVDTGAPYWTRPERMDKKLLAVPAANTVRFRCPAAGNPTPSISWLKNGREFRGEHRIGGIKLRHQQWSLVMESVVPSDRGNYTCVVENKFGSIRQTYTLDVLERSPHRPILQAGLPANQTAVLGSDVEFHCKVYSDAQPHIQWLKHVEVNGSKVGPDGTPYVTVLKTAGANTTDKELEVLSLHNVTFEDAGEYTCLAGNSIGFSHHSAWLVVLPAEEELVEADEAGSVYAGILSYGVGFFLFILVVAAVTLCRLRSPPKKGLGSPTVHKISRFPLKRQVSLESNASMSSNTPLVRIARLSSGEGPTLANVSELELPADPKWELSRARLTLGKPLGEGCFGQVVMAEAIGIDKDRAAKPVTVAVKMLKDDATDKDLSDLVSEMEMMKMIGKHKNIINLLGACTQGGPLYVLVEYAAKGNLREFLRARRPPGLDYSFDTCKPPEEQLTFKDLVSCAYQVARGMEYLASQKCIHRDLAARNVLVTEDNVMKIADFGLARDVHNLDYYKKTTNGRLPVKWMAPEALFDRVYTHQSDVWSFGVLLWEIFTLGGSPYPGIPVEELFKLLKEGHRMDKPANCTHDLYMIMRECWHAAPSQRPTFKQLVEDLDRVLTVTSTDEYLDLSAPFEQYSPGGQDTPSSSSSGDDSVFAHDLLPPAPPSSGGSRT
LCK (human), sequence (P06239 whole entry, looked up): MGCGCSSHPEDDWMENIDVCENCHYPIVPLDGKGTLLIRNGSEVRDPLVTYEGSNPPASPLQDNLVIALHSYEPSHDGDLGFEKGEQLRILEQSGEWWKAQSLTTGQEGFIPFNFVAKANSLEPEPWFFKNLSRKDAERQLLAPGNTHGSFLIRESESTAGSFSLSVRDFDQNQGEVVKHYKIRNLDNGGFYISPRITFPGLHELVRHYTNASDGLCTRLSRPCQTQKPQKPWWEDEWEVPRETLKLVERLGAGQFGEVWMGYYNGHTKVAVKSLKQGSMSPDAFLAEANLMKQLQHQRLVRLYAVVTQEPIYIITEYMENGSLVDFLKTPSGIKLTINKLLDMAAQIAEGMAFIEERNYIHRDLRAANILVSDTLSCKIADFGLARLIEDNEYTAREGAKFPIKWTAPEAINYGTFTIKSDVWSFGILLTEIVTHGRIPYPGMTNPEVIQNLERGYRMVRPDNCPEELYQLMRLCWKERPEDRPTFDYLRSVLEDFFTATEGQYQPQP

inhibition ([1]; compound 0.01 µM): 4.8%
inhibition ([1]; compound 0.1 µM): -2.5%
inhibition (ABL2 (human); compound 0.01 µM): 4.8%
inhibition (ABL2 (human); compound 0.1 µM): 3.1%
inhibition (AKT1 (human); compound 0.01 µM): 2.8%
inhibition (AKT1 (human); compound 0.1 µM): -1.1%
inhibition (AKT3 (human); compound 0.01 µM): -6.5%
inhibition (AKT3 (human); compound 0.1 µM): 5.2%
inhibition (AURKB (human); compound 0.01 µM): 3.2%
inhibition (AURKB (human); compound 0.1 µM): 17%
inhibition (AURKC (human); compound 0.01 µM): -15.8%
inhibition (AURKC (human); compound 0.1 µM): 5.6%
inhibition (CAMK2D (human); compound 0.01 µM): 1.7%
inhibition (CAMK2D (human); compound 0.1 µM): 13.2%
inhibition (CAMK2G (human); compound 0.01 µM): 6.3%
inhibition (CAMK2G (human); compound 0.1 µM): 2.1%
inhibition (CHEK2 (human); compound 0.01 µM): -5.2%
inhibition (CHEK2 (human); compound 0.1 µM): -5.1%
inhibition (CSNK1D (human); compound 0.01 µM): 2%
inhibition (CSNK1D (human); compound 0.1 µM): -2.8%
inhibition (DCLK2 (human); compound 0.01 µM): 8.7%
inhibition (DCLK2 (human); compound 0.1 µM): -0.7%
inhibition (FER (human); compound 0.01 µM): -6.3%
inhibition (FER (human); compound 0.1 µM): 0.8%
inhibition (FGFR3 (human); compound 0.01 µM): -38.6%
inhibition (FGFR3 (human); compound 0.1 µM): -12.3%
inhibition (FGFR4 (human); compound 0.01 µM): 12.6%
inhibition (FGFR4 (human); compound 0.1 µM): -18.4%
inhibition ([2]; compound 0.01 µM): 2.3%
inhibition ([2]; compound 0.1 µM): 16.7%
inhibition (HCK (human); compound 0.01 µM): 2.6%
inhibition (HCK (human); compound 0.1 µM): -2%
inhibition (IRAK4 (human); compound 0.01 µM): 19.1%
inhibition (IRAK4 (human); compound 0.1 µM): -1.2%
inhibition (LCK (human); compound 0.01 µM): -2.9%
inhibition (LCK (human); compound 0.1 µM): 3.3%
inhibition (MAPK1 (human); compound 0.01 µM): -2.5%
inhibition (MAPK1 (human); compound 0.1 µM): -0.1%
inhibition (MAPK11 (human); compound 0.01 µM): -1.5%
inhibition (MAPK11 (human); compound 0.1 µM): 0.7%
inhibition (MARK1 (human); compound 0.01 µM): -0.1%
inhibition (MARK1 (human); compound 0.1 µM): -2.9%
inhibition (MARK3 (human); compound 0.01 µM): -1.6%
inhibition (MARK3 (human); compound 0.1 µM): -2.2%
inhibition (NEK2 (human); compound 0.01 µM): -2.6%
inhibition (NEK2 (human); compound 0.1 µM): -2.3%
inhibition (PAK2 (human); compound 0.01 µM): 0.1%
inhibition (PAK2 (human); compound 0.1 µM): 3.6%
inhibition (PRKCZ (human); compound 0.01 µM): -0.3%
inhibition (PRKCZ (human); compound 0.1 µM): 4.6%
inhibition (PRKD1 (human); compound 0.01 µM): -2.8%
inhibition (PRKD1 (human); compound 0.1 µM): -4.1%
inhibition (PRKD2 (human); compound 0.01 µM): -6.3%
inhibition (PRKD2 (human); compound 0.1 µM): -5.2%
inhibition (PRKD3 (human); compound 0.01 µM): 3.2%
inhibition (PRKD3 (human); compound 0.1 µM): -5.2%
inhibition (PRKG1 (human); compound 0.01 µM): 2% and 2.1%
inhibition (PRKG1 (human); compound 0.1 µM): 3.8% and -4.6%
inhibition (RPS6KA4 KD1 KD2 (human); compound 0.01 µM): 9.3%
inhibition (RPS6KA4 KD1 KD2 (human); compound 0.1 µM): -5.3%
inhibition (RPS6KB1 (human); compound 0.01 µM): 6.8%
inhibition (RPS6KB1 (human); compound 0.1 µM): -1.3%
inhibition (SGK1 (human); compound 0.01 µM): -3.6%
inhibition (SGK1 (human); compound 0.1 µM): -31.9%
inhibition (STK3 (human); compound 0.01 µM): 1.5%
inhibition (STK3 (human); compound 0.1 µM): 0.6%
inhibition (SYK (human); compound 0.01 µM): -4.6%
inhibition (SYK (human); compound 0.1 µM): 6.2%
Compound: O=c1c2cc(CS(=O)(=O)NCc3ccccn3)ccc2ccc2ncc(C3CCNCC3)cc12
